Read-outs that look alike come from different tables or passages of the source.
How the values were obtained:
[1] = target: T1, PfACβ (adenylyl cyclase-β) (Plasmodium falciparum, UniProt C0H4R1); assay: radioactive two-column adenylyl cyclase assay with purified GST-PfACβ[…]-785; type: biochemical
T1 construct: gene PF3D7_0802600; GST-PfACβ1-785 (catalytic domains, AA 1–785)
T1 sequence (C0H4R1 1-785): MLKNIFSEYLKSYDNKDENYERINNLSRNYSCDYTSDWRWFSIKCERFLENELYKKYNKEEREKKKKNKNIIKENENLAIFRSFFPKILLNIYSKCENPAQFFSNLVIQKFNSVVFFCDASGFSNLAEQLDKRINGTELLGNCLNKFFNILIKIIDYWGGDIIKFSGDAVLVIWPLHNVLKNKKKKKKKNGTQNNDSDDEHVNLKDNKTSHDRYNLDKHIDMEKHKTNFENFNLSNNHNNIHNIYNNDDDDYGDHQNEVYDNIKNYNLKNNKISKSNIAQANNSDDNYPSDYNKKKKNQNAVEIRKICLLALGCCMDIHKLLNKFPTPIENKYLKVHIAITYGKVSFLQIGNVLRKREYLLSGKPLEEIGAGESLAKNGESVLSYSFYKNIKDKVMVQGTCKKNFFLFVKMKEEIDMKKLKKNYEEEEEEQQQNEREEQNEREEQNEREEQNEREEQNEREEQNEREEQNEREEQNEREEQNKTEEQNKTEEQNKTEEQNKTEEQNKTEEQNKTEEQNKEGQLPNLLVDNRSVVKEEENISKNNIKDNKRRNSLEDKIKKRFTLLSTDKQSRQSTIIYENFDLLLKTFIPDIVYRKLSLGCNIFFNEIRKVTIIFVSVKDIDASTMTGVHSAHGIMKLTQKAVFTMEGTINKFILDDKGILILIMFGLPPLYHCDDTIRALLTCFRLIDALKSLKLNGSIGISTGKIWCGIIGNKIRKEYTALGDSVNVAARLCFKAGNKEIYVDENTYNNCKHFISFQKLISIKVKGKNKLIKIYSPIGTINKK

PfACα = target: T2, PfACα (Plasmodium falciparum, UniProt Q8I7A1); assay: adenylyl cyclase activity in PfACα-expressing Hi5 cells, […] 2-CE; type: cell-based
T2 construct: gene ac1
T2 sequence (Q8I7A1 1-884): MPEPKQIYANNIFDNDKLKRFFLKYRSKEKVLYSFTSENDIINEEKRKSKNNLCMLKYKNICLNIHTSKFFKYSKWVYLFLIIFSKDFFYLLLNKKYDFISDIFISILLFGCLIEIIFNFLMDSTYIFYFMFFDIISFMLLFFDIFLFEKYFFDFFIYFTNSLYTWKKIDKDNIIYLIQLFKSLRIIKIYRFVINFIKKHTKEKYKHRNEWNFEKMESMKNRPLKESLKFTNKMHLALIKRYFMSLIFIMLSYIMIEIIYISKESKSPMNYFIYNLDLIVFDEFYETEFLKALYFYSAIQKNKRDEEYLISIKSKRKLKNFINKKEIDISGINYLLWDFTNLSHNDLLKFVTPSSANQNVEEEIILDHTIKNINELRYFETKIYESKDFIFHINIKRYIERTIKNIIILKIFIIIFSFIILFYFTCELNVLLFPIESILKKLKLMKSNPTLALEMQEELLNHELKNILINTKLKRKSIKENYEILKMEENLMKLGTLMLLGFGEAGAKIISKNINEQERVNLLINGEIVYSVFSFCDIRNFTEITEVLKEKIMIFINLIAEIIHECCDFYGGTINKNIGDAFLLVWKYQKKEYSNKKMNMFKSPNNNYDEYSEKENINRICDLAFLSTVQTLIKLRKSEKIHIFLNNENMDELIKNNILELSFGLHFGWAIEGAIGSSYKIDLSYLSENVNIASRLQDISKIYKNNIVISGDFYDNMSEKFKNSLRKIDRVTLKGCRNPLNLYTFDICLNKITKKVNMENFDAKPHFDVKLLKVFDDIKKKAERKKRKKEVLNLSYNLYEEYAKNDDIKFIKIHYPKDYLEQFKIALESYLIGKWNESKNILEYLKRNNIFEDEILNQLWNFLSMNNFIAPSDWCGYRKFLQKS

[2] = substrate: Nc1ncnc2c1ncn2[C@@H]1O[C@H](COP(=O)(O)OP(=O)(O)OP(=O)(O)O)[C@@H](O)[C@H]1O; assay: Michaelis-Menten kinetics (Km), adenylyl cyclase assay with purified enzyme; type: biochemical, Plasmodium falciparum; conditions: Mn2+ active site; lack of cooperative binding of substrate

## CC(Sc1nc2ccccc2[nH]1)C(=O)N/N=C/c1cc(Br)ccc1O (racemic) [KH7]
[1]; read-out: IC50
  IC50: 5 µM

## C[C@]12CC[C@@H]3c4cc(O)c(O)cc4CC[C@H]3[C@@H]1CC[C@@H]2O [2-CE, 2-hydroxyestradiol]
PfACα
  adenylyl cyclase activity in PfACα-expressing Hi5 cells, 50 μM 2-CE: although PfACα adenylyl cyclase activity was inhibited by 2-CE, it was largely insensitive to KH7 (Figure 4C)
[1]
  IC50: 8 µM

## KH7.15
[1]; read-out: IC50
  IC50: 150 µM

B1: PfACβ (adenylyl cyclase-β) (Plasmodium falciparum 3D7) (protein)
chain: T1 sequence (C0H4R1 1-785)
notes: GST-PfACβ1-785 (catalytic domains, AA 1–785)
[2]
  Km: 570 µM

Source: paper PMC3383692, “Characterization of Plasmodium falciparum Adenylyl Cyclase-β and Its Role in Erythrocytic Stage Parasites” (PLoS ONE, 2012)
